Reference: US12370182B2, “Bicyclic derivatives as GABAA A5 receptor modulators” (RICHTER GEDEON NYRT., priority 2018, dated 2025)

Key:
[1] = molecular target: T1, human recombinant GABAA α5β3γ2 receptor (Homo sapiens (Human), UniProt P18507+P31644); assay: Binding assay, [3H]Ro151788 displacement on membranes of HEK cells; details: 0.5 nM [3H]Ro151788, 60 minutes at 4° C., Cheng-Prusoff; read-out: hGABAA α5 Ki
Experimental: The GABAA α5β3γ2 protein used for the receptor binding assay was derived from membranes produced from HEK cells (Millipore CYL3073) expressing the human recombinant GABAA α5β3γ2 receptor. Cells were stored and cultured in-house according to the instructions provided by the vendor (Millipor). Cell pellet was homogenized in 10 times modified Krebs Henseleit buffer (membrane preparation buffer): 20 mM Tris, 120 mM NaCl, 100 mM KCl, 25 mM CaCl2) and 25 mM MgCl2 pH=7.4 at 4° C. using Ultra Turrax (Janke&Kunkel) maximal speed for 15 seconds. The homogenate was centrifuged at 40,000 g for 30 minutes at 4° C. Supernatant was discarded and the resulting pellet was washed in membrane preparation buffer. Pellet was resuspended in membrane preparation buffer and aliquots of 1.4 mL ampulles were stored at −70° C. until use.
Receptor binding assays were performed in 96-well format in deep-well plates. For each 96-well plate one ampulle of membrane homogenate was thawed and diluted in binding buffer (50 mM Tris pH=7.4, 100 mM KCl) and 200 μL was dispensed into each well. Radioligand [^3H]Ro151788 (Perkin Elmer: NET757250UC) was prepared in binding buffer and added to each well in 50 μL volume to give final concentration of 0.5 nM. Test compounds in suitable concentration(s) were added in additional 50 μL. The final assay volume was 300 μL. Incubation was carried out for 60 minutes at 4° C. For non-specific binding 10 μM unlabeled diazepam was used. After incubation samples were filtered over UniFilter® GF/B™ using Filtermate Harvester (Perkin Elmer) and washed with 5×1 mL binding buffer. The plate was dried at 40° C. for an hour and 40 μL Microscint (Perkin Elmer) scintillation cocktail was added to each well. The plate was read in Microbeta (Perkin Elmer).
The specific radioligand binding (SB) was defined as the difference between total binding (Tot) and the non-specific binding (NSB). Results are expressed as a percent inhibition of specific binding obtained in the presence of compound of interest.
For IC50 and Ki determination a minimum of six drug concentrations in triplicate were used. […] Ki values (i.e. inhibition constants) were calculated using the Cheng-Prusoff equation Ki=IC50/[1+(L/KD)], where [L] is the radioligand concentration and KD the affinity of the labelled ligand for receptor. KD was determined from the Saturation analyses.

[2] = molecular target: human recombinant GABAA α1β3γ2 receptor (Homo sapiens (Human), UniProt P14867+P18507); assay: Functional assay, QPatch automated patch clamp, GABA-evoked currents; type: cell-based; details: test compound 10 μM, 1 μM GABA, HEK293 cells, percentage modulation of peak current
Chain of human recombinant GABAA α1β3γ2 receptor (P14867 28-456): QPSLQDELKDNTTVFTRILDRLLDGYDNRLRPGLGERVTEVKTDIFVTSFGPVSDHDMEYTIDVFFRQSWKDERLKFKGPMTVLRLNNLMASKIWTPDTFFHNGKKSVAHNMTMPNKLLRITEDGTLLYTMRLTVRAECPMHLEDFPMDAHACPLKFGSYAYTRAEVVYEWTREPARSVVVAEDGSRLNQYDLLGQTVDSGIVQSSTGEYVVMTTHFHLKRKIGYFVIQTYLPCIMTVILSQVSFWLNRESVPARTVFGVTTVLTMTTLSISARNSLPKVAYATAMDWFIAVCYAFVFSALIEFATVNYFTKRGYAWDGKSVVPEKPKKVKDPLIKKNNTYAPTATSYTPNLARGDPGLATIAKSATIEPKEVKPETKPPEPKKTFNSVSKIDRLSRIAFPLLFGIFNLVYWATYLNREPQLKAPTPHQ
Chain of human recombinant GABAA α1β3γ2 receptor (P28472 26-473 partner): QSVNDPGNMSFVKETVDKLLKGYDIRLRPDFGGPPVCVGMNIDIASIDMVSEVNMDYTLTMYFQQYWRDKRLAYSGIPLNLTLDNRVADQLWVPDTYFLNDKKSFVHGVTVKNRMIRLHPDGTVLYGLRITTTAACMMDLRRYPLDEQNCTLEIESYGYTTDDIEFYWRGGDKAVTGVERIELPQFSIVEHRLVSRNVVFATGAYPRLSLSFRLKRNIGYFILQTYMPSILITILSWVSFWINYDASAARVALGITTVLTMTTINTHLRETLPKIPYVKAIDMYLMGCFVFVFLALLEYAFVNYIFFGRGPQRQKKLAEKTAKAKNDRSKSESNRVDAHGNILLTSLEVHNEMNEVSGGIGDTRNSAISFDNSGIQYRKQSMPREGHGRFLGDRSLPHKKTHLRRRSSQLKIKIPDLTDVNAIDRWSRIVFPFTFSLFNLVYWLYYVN
Chain of human recombinant GABAA α1β3γ2 receptor (P18507 40-475): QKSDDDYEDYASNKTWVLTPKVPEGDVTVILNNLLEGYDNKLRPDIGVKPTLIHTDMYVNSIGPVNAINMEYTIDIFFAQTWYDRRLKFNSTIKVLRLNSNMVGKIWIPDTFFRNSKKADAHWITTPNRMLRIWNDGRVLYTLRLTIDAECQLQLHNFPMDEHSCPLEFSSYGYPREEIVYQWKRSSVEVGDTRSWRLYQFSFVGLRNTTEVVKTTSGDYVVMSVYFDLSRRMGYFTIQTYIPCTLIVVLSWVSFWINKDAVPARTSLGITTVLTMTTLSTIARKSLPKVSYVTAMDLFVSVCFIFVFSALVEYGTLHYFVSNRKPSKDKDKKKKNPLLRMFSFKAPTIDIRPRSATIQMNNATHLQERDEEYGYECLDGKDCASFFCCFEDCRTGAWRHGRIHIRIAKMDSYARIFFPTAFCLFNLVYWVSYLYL
Experimental: (§1) Human HEK293 cell lines expressing GABAA α1β3γ2 and GABAAα5β3γ2 receptors were used in functional assays using the QPatch automated patch clamp system.
(§2) HEK293 cell lines stably expressing human recombinant GABAA α1β3γ2 receptor subunits (Millipore, CYL3073) or human recombinant GABAA α5β3γ2 receptor subunits (Millipore, CYL3053) were cultured in DMEM supplemented with 10% FBS (Gibco), passed two times per week and plated on Petri dishes previously coated with poly-d-lysine.
(§3) Automated whole-cell patch clamp recordings were made from cells 2-4 days after plating. Cells were detached using trypsin/EDTA (Sigma) treatment (2 minutes in 0.25% trypsin at 37° C.), then, after centrifugation (125 G, 3 min, 2×), resuspended in a serum-free based media (Gibco, CHO—S-SFM-II) containing 12.5 mM HEPES, 1× penicillin-streptomycin-amphotericin (SigmaMix) and soybean trypsin inhibitor (Sigma, 0.04 mg/ml).
(§4) Cell suspension, as well as the extracellular solution (130 mM NaCl, 5 mM KCl, 5.1 mM HEPES, 4.9 mM HEPES-Na, 10 mM CaCl2), 2 mM MgCl2, 10 mM glucose and 0.1% DMSO, pH=7.35-7.4) and the intracellular solution (80 mM KCl, 50 mM KF, 36 mM KOH, 10 mM EGTA, 10 mM HEPES, 1.75 mM MgCl2, 0.5 mM CaCl2), 4 mM Na2ATP. 14 mM phosphocreatine, 50 U/ml creatine-phosphokinase, 0.3 mM GTP, pH=7.25-7.3) were added to the QPatch-HTX automated patch clamp system (Sophion) in single-cell mode at room temperature. […] At the end of the experiment 100 μM GABA was applied to saturate the GABA-response and to assess the efficacy of the control GABA application.
(§5) The percentage modulation was calculated from the comparison of GABA-evoked peak current amplitudes in the presence and absence of the test compound.

[3] = molecular target: T1, human recombinant GABAA α5β3γ2 receptor; assay: as above; type: cell-based; details: test compound 10 μM, 1 μM GABA, HEK293 cells, percentage modulation of peak current
Experimental: as §1, §2, §3, §4, §5

T1 sequence (P31644 32-462): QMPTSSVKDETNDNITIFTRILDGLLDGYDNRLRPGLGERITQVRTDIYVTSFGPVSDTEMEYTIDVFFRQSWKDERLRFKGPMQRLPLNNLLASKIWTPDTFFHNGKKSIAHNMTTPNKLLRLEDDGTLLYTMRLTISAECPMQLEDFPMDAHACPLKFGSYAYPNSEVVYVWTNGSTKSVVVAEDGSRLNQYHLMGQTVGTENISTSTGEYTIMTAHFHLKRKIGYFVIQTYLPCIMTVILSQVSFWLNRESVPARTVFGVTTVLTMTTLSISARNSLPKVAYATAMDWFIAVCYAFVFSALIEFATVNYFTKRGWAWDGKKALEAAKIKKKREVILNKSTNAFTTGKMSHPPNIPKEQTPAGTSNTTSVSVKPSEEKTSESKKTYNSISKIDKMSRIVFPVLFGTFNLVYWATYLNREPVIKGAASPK
T1 sequence (P28472 26-473 partner): as the sequence (P28472 26-473 partner) above
T1 sequence (P18507 40-475): as the sequence (P18507 40-475) above

Row | SMILES | Ki [1] | hGABAA α1 efficacy [2] | hGABAA α5 efficacy [3]
1 | Cc1onc(-c2ccc(F)cc2)c1COc1ccc2c(n1)CCN(C(=O)C1CCOC1)C2 (stereo not shown) [Example 2, 2-{[3-(4-fluorophenyl)-5-methyl-1,2-oxazol-4-yl]methoxy}-6-(oxolane-3-carbonyl)-5,6,7,8-tetrahydro-1,6-naphthyridine] | 0.007 µM | −14% | −40%
2 | Cc1onc(-c2ccc(F)cc2)c1COc1ccc2c(n1)CCN(C(=O)C1CCS(=O)(=O)CC1)C2 [Example 6, 4-(2-{[3-(4-fluorophenyl)-5-methyl-1,2-oxazol-4-yl]methoxy}-5,6,7,8-tetrahydro-1,6-naphthyridine-6-carbonyl)-1lambda6-thiane-1,1-dione] | 0.0027 µM | −10% | −38%
3 | Cc1onc(-c2ccc(F)cc2)c1COc1ccc2c(n1)CCN(C(=O)CS(C)(=O)=O)C2 [Example 8, 1-(2-{[3-(4-fluorophenyl)-5-methyl-1,2-oxazol-4-yl]methoxy}-5,6,7,8-tetrahydro-1,6-naphthyridin-6-yl)-2-methanesulfonylethan-1-one] | 0.0037 µM | −2% | −39%
4 | Cc1onc(-c2ccc(F)cc2)c1COc1ccc2c(n1)CCN(C(=O)C1CCOCC1)C2 [Example 9, 2-{[3-(4-fluorophenyl)-5-methyl-1,2-oxazol-4-yl]methoxy}-6-(oxane-4-carbonyl)-5,6,7,8-tetrahydro-1,6-naphthyridine] | 0.0062 µM | −9% | −37%
5 | Cc1onc(-c2ccc(F)cc2)c1COc1ccc2c(n1)CCN(C(=O)C1CC(=O)N(C)C1)C2 (stereo not shown) [Example 13, 4-(2-{[3-(4-fluorophenyl)-5-methyl-1,2-oxazol-4-yl]methoxy}-5,6,7,8-tetrahydro-1,6-naphthyridine-6-carbonyl)-1-methylpyrrolidin-2-one] | 0.0043 µM | −3% | −34%
6 | CC(=O)N1CCc2nc(OCc3c(C)nnn3-c3ccc(F)cc3)ccc2C1 [Example 14, 1-(2-{[1-(4-fluorophenyl)-4-methyl-1H-1,2,3-triazol-5-yl]methoxy}-5,6,7,8-tetrahydro-1,6-naphthyridin-6-yl)ethan-1-one] | 0.028 µM | 0% | −36%
7 | Cc1nnn(-c2ccc(F)cc2)c1COc1ccc2c(n1)CCN(C(=O)C1CCCO1)C2 (stereo not shown) [Example 15, 2-{[1-(4-fluorophenyl)-4-methyl-1H-1,2,3-triazol-5-yl]methoxy}-6-(oxolane-2-carbonyl)-5,6,7,8-tetrahydro-1,6-naphthyridine] | 0.042 µM | −8% | −43%
8 | Cc1nnn(-c2ccc(F)cc2)c1COc1ccc2c(n1)CCN(C(=O)C1CCOC1)C2 (stereo not shown) [Example 16, 2-{[1-(4-fluorophenyl)-4-methyl-1H-1,2,3-triazol-5-yl]methoxy}-6-(oxolane-3-carbonyl)-5,6,7,8-tetrahydro-1,6-naphthyridine] | 0.042 µM | −7% | −39%
9 | Cc1nnn(-c2ccc(Cl)cc2)c1COc1ccc2c(n1)CCN(C(=O)C1CCOC1)C2 (stereo not shown) [Example 29, 2-{[1-(4-chlorophenyl)-4-methyl-1H-1,2,3-triazol-5-yl]methoxy}-6-(oxolane-3-carbonyl)-5,6,7,8-tetrahydro-1,6-naphthyridine] |  | −2% | −25%
10 | Cn1nnc(-c2ccc(F)cc2)c1COc1ccc2c(n1)CN(C(=O)C1CCCO1)C2 (stereo not shown) [Example 73, 4-(4-fluorophenyl)-1-methyl-5-({[6-(oxolane-2-carbonyl)-5H,6H,7H-pyrrolo[3,4-b]pyridin-2-yl]oxy}methyl)-1H-1,2,3-triazole] | 0.018 µM |  | 
11 | Cn1nnc(-c2ccc(F)cc2)c1COc1ccc2c(n1)CN(C(=O)C1CCCOC1)C2 (stereo not shown) [Example 74, 4-(4-fluorophenyl)-1-methyl-5-({[6-(oxane-3-carbonyl)-5H,6H,7H-pyrrolo[3,4-b]pyridin-2-yl]oxy}methyl)-1H-1,2,3-triazole] | 0.046 µM |  | 
12 | Cc1nnn(-c2ccc(F)cc2)c1COc1ccc2c(n1)CCN(C(=O)N(C)C)C2 [Example 76, 2-{[1-(4-fluorophenyl)-4-methyl-1H-1,2,3-triazol-5-yl]methoxy}-N,N-dimethyl-5,6,7,8-tetrahydro-1,6-naphthyridine-6-carboxamide] | 0.03 µM |  | 
13 | Cc1nnn(-c2ccc(F)cc2)c1COc1ccc2c(n1)CCN(C(=O)N1CCCC1)C2 [Example 77, 2-{[1-(4-fluorophenyl)-4-methyl-1H-1,2,3-triazol-5-yl]methoxy}-6-(pyrrolidine-1-carbonyl)-5,6,7,8-tetrahydro-1,6-naphthyridine] | 0.066 µM |  | 
14 | Cc1nnn(-c2ccc(F)cc2)c1COc1ccc2c(n1)CCN(C(=O)Nc1ccccc1Cl)C2 [Example 79, N-(2-chlorophenyl)-2-{[1-(4-fluorophenyl)-4-methyl-1H-1,2,3-triazol-5-yl]methoxy}-5,6,7,8-tetrahydro-1,6-naphthyridine-6-carboxamide] | 0.108 µM |  | 
15 | Cc1nnn(-c2ccc(F)cc2)c1COc1ccc2c(n1)CCN(C(=O)N1CCOCC1)C2 [Example 80, 2-{[1-(4-fluorophenyl)-4-methyl-1H-1,2,3-triazol-5-yl]methoxy}-6-(morpholine-4-carbonyl)-5,6,7,8-tetrahydro-1,6-naphthyridine] | 0.038 µM |  | 
16 | Cc1nnn(-c2ccc(F)cc2)c1COc1ccc2c(n1)CCN(C(=O)Nc1ccc(Cl)cc1)C2 [Example 81, N-(4-chlorophenyl)-2-{[1-(4-fluorophenyl)-4-methyl-1H-1,2,3-triazol-5-yl]methoxy}-5,6,7,8-tetrahydro-1,6-naphthyridine-6-carboxamide] | 0.037 µM |  | 
17 | Cc1onc(-c2ccc(F)cc2)c1COc1ccc2c(n1)CCN(C(=O)N1CCOCC1)C2 [Example 82, 2-{[3-(4-fluorophenyl)-5-methyl-1,2-oxazol-4-yl]methoxy}-6-(morpholine-4-carbonyl)-5,6,7,8-tetrahydro-1,6-naphthyridine] | 0.0052 µM |  | 
18 | Cc1onc(-c2ccc(F)cc2)c1COc1ccc2c(n1)CCN(C(=O)N(C)C)C2 [Example 83, 2-{[3-(4-fluorophenyl)-5-methyl-1,2-oxazol-4-yl]methoxy}-N,N-dimethyl-5,6,7,8-tetrahydro-1,6-naphthyridine-6-carboxamide] | 0.0038 µM |  | 
19 | Cc1onc(-c2ccc(F)cc2)c1COc1ccc2c(n1)CCN(C(=O)N1CCCC1)C2 [Example 84, 2-{[3-(4-fluorophenyl)-5-methyl-1,2-oxazol-4-yl]methoxy}-6-(pyrrolidine-1-carbonyl)-5,6,7,8-tetrahydro-1,6-naphthyridine] | 0.0089 µM |  | 
20 | Cc1onc(-c2ccc(F)cc2)c1COc1ccc2c(n1)CCN(C(=O)NC1CCOC1)C2 (stereo not shown) [Example 86, 2-{[3-(4-fluorophenyl)-5-methyl-1,2-oxazol-4-yl]methoxy}-N-(oxolan-3-yl)-5,6,7,8-tetrahydro-1,6-naphthyridine-6-carboxamide] | 0.0065 µM |  | 
